Laboratory results reported in US12398107B2, “Fungicidal nitroanilino substituted pyrazoles” (FMC Corporation, priority 2018, dated 2025).

Legend:
Assay type in all cases: in vivo
[1] = test system: Alternaria solani; experiment: Test F: tomato early blight, preventive spray on tomato seedlings; settings: 100 = 100% disease control, 0 = no control; for Test F disease control rating (tomato early blight) / pest or weed control at 50 ppm: 50 ppm
Excerpt: (§1) General protocol for preparing test suspensions for Tests A-F: the test compounds were first dissolved in acetone in an amount equal to 3% of the final volume and then suspended at the desired concentration (in ppm) in acetone and purified water (50/50 mix by volume) containing 250 ppm of the surfactant PEG400 (polyhydric alcohol esters). The resulting test suspensions were then used in Tests A-F. The test suspension was sprayed to the point of run-off on tomato seedlings. The following day the seedlings were inoculated with a spore suspension of Alternaria solani (the causal agent of tomato early blight) and incubated in a saturated atmosphere at 27° C. for 48 h, and then moved to a growth chamber at 20° C. for 3 days, after which time visual disease ratings were made. A rating of 100 indicates 100% disease control and a rating of 0 indicates no disease control (relative to the controls). A dash (-) indicates the compound was not tested.

[2] = test system: Septoria tritici; experiment: Test A: wheat leaf blotch, preventive spray on wheat seedlings; settings: 100 = 100% disease control, 0 = no control relative to controls; for Test A disease control rating (wheat leaf blotch) / pest or weed control at 50 ppm: 50 ppm
Excerpt: (§2) General protocol for preparing test suspensions for Tests A-F: the test compounds were first dissolved in acetone in an amount equal to 3% of the final volume and then suspended at the desired concentration (in ppm) in acetone and purified water (50/50 mix by volume) containing 250 ppm of the surfactant PEG400 (polyhydric alcohol esters). The resulting test suspensions were then used in Tests A-F. The test solution was sprayed to the point of run-off on wheat seedlings. The following day the seedlings were inoculated with a spore suspension of Septoria tritici (the causal agent of wheat leaf blotch) and incubated in a saturated atmosphere at 24° C. for 48 h, and then moved to a growth chamber at 20° C. for 17 days, after which time disease ratings were made. A rating of 100 indicates 100% disease control and a rating of 0 indicates no disease control (relative to the controls). A dash (-) indicates the compound was not tested.

[3] = test system: Phakopsora pachyrhizi; experiment: Test D: Asian soybean rust, preventive spray on soybean seedlings; settings: 100 = 100% disease control, 0 = no control; for Test D disease control rating (Asian soybean rust) / pest or weed control at 50 ppm: 50 ppm
Excerpt: General protocol for preparing test suspensions for Tests A-F: the test compounds were first dissolved in acetone in an amount equal to 3% of the final volume and then suspended at the desired concentration (in ppm) in acetone and purified water (50/50 mix by volume) containing 250 ppm of the surfactant PEG400 (polyhydric alcohol esters). The resulting test suspensions were then used in Tests A-F.
The test solution was sprayed to the point of run-off on soybean seedlings. The following day the seedlings were inoculated with a spore suspension of Phakopsora pachyrhizi (the causal agent of Asian soybean rust) and incubated in a saturated atmosphere at 22° C. for 24 h and then moved to a growth chamber at 22° C. for 8 days, after which time visual disease ratings were made.
A rating of 100 indicates 100% disease control and a rating of 0 indicates no disease control (relative to the controls). A dash (-) indicates the compound was not tested.

[4] = test system: Blumeria graminis f. sp. tritici; experiment: Test C: wheat powdery mildew, preventive spray on wheat seedlings; settings: rated after 8 days, 100 = 100% disease control, 0 = no control; for Test C disease control rating (wheat powdery mildew) / pest or weed control at 50 ppm: 50 ppm
Excerpt: as §1, with “on wheat” for “on tomato”, “spore dust” for “spore suspension”, “of Blumeria graminis f. sp. tritici, (also known as Erysiphe graminis f. sp. tritici, the” for “of Alternaria solani (the”, “of wheat powdery mildew)” for “of tomato early blight)”, “in” for “in a saturated atmosphere at 27° C. for 48 h, and then moved to”, “for 8” for “for 3”

[5] = test system: Puccinia recondita f. sp. tritici; experiment: Test B: wheat leaf rust, preventive spray on wheat seedlings; settings: 100 = 100% disease control, 0 = no control relative to controls; for Test B disease control rating (wheat leaf rust) / pest or weed control at 50 ppm: 50 ppm
Excerpt: as §2, with “Puccinia recondita f. sp.” for “Septoria”, “rust)” for “blotch)”, “20°” for “24°”, “24” for “48”, “7” for “17”

[6] = test system: Botrytis cinerea; experiment: Test E: tomato Botrytis, preventive spray on tomato seedlings; settings: 100 = 100% disease control, 0 = no control; for Test E disease control rating (tomato Botrytis) / pest or weed control at 50 ppm: 50 ppm
Excerpt: as §1, with “Botrytis cinerea” for “Alternaria solani”, “Botrytis)” for “early blight)”, “20°” for “27°”, “24°” for “20°”

[7] = Alternaria solani, read-out: Test F disease control rating (tomato early blight)
[8] = Zymoseptoria tritici, read-out: Test A disease control rating (wheat leaf blotch)
[9] = Phakopsora pachyrhizi, read-out: Test D disease control rating (Asian soybean rust)
[10] = Blumeria graminis, 192 h, read-out: Test C disease control rating (wheat powdery mildew)
[11] = read-out: Test B disease control rating (wheat leaf rust)
[12] = Botrytis cinerea, read-out: Test E disease control rating (tomato Botrytis)

SMILES	Test F disease control rating (tomato early blight) [1] [%]	Test A disease control rating (wheat leaf blotch) [2] [%]	Test D disease control rating (Asian soybean rust) [3] [%]	Test C disease control rating (wheat powdery mildew) [4] [%]	Test B disease control rating (wheat leaf rust) [5] [%]	Test E disease control rating (tomato Botrytis) [6] [%]	pest or weed control at 10 ppm ([1]; Alternaria solani, 10 ppm, read-out: Test F disease control rating (tomato early blight)) [%]	pest or weed control at 50 ppm [1, 7] [%]	pest or weed control at 10 ppm ([2]; Zymoseptoria tritici, 10 ppm, read-out: Test A disease control rating (wheat leaf blotch)) [%]	pest or weed control at 50 ppm [2, 8] [%]	pest or weed control at 10 ppm ([3]; Phakopsora pachyrhizi, 10 ppm, read-out: Test D disease control rating (Asian soybean rust)) [%]	pest or weed control at 50 ppm [3, 9] [%]	pest or weed control at 10 ppm ([4]; Blumeria graminis, 192 h, 10 ppm, read-out: Test C disease control rating (wheat powdery mildew)) [%]	pest or weed control at 50 ppm [4, 10] [%]	pest or weed control at 10 ppm ([5]; 10 ppm, read-out: Test B disease control rating (wheat leaf rust)) [%]	pest or weed control at 50 ppm [5, 11] [%]	pest or weed control at 10 ppm ([6]; Botrytis cinerea, 10 ppm, read-out: Test E disease control rating (tomato Botrytis)) [%]	pest or weed control at 50 ppm [6, 12] [%]
COc1cc(F)c(-c2c(C)nn(C)c2Nc2c(C)cccc2[N+](=O)[O-])c(F)c1 [Compound 162]	98	100	77	99	100	97	–	–	–	–	–	–	–	–	–	–	–	–
COc1cc(F)c(Nc2c(-c3ccc(F)cc3Br)c(C)nn2C)c([N+](=O)[O-])c1 [Compound 165]	100	99	94	98	100	100	–	–	–	–	–	–	–	–	–	–	–	–
COc1cc(F)c(-c2c(C)nn(C)c2Nc2c(Cl)cc(F)cc2[N+](=O)[O-])c(F)c1 [Compound 2]	61	100	94	99	100	99	–	–	–	–	–	–	–	–	–	–	–	–
Cc1cccc([N+](=O)[O-])c1Nc1c(-c2ccc(Cl)cc2Cl)c(C)nn1C [Compound 144]	0	100	69	35	68	0	–	–	–	–	–	–	–	–	–	–	–	–
Cc1nn(C)c(Nc2c(F)cccc2[N+](=O)[O-])c1-c1ccc(F)cc1F [Compound 118, 4-(2,4-difluorophenyl)-N-(2-fluoro-6-nitrophenyl)-1,3-dimethyl-1H-pyrazol-5-amine]	–	–	–	–	–	–	60	99	100	100	0	0	27	98	80	100	99	100
Cc1nn(C)c(Nc2c(Cl)cccc2[N+](=O)[O-])c1-c1ccc(C#N)cc1Cl [Compound 123]	66	100	0	81	97	100	–	–	–	–	–	–	–	–	–	–	–	–
Cc1cc(Cl)c(Nc2c(-c3ccc(Cl)cc3Cl)c(C)nn2C)c([N+](=O)[O-])c1 [Compound 145]	24	98	0	52	92	85	–	–	–	–	–	–	–	–	–	–	–	–
COc1cc(F)c(Nc2c(-c3ccc(F)cc3F)c(C)nn2C)c([N+](=O)[O-])c1 [Compound 57, 4-(2,4-difluorophenyl)-N-(2-fluoro-4-methoxy-6-nitrophenyl)-1,3-dimethyl-1H-pyrazol-5-amine]	–	–	–	–	–	–	–	100	–	100	–	96	–	100	–	100	–	100
Cc1nn(C)c(Nc2c(F)cccc2[N+](=O)[O-])c1-c1c(F)cc(C#N)cc1F [Compound 114]	99	100	73	99	98	100	–	–	–	–	–	–	–	–	–	–	–	–
Cc1nn(C)c(Nc2c(Cl)cccc2[N+](=O)[O-])c1-c1c(F)cccc1Cl [Compound 38]	0	100	0	95	99	88	–	–	–	–	–	–	–	–	–	–	–	–
Cc1cccc([N+](=O)[O-])c1Nc1c(-c2ccc(F)cc2F)c(C)nn1C [Compound 177]	9	100	0	50	97	100	–	–	–	–	–	–	–	–	–	–	–	–
COc1cc(F)c(Nc2c(-c3c(F)cccc3F)c(C)nn2C)c([N+](=O)[O-])c1 [Compound 97]	99	100	96	100	100	100	–	–	–	–	–	–	–	–	–	–	–	–
Cc1nn(C)c(Nc2c(F)cc(F)cc2[N+](=O)[O-])c1-c1ccc(F)cc1Cl [Compound 109]	99	100	93	100	100	100	–	–	–	–	–	–	–	–	–	–	–	–
